For 25 substances, 3 h FOB score results are on record in the OligoGym collection.

HELM strings list units from the 5' end as sugar, base in round brackets, then linkage (d deoxyribose, r ribose, m 2'-O-methyl, p phosphodiester). Strings are as the collection lists them; they lack the last nucleoside at the 3' end of the tested compound. [moe] = 2'-O-(2-methoxyethyl) (MOE); [sp] = phosphorothioate linkage; [m5C] = 5-methylcytosine

The target of the data set is PRNP. Kind of data set: mouse, dose not given. As to conditions: ASO.
Substance “RNA1{[moe](T)[sp].[moe](G)p.[moe](G)p.[moe]([m5C])p.[moe](A)[sp].d([m5C])[sp].d(T)[sp].d(T)[sp].d(T)[sp].d([m5C])[sp].d(T)[sp].d(T)[sp].d(T)[sp].d(T)[sp].d(T)[sp].[moe](A)p.[moe](T)p.[moe](T)[sp].[moe](T)}$$$$ (last 3' nucleoside missing)” came in with a 3 h FOB score of 0 score 0-7. The value for “RNA1{[moe](T)[sp].[moe](G)p.[moe](G)p.[moe]([m5C])p.[moe](A)p.[moe]([m5C])p.d(T)[sp].d(T)[sp].d(T)[sp].d([m5C])[sp].d(T)[sp].d(T)[sp].d(T)[sp].d(T)[sp].d(T)[sp].d(A)[sp].[moe](T)p.[moe](T)[sp].[moe](T)}$$$$ (last 3' nucleoside missing)” was 0.25 score 0-7; that for “RNA1{[moe](T)[sp].[moe](G)p.[moe](G)p.[moe]([m5C])p.[moe](T)[sp].d(T)[sp].d(A)[sp].d([m5C])[sp].d(T)[sp].d([m5C])[sp].d(G)[sp].d(G)[sp].d([m5C])[sp].d(T)[sp].d(T)[sp].[moe](G)p.[moe](T)p.[moe](T)[sp].[moe]([m5C])}$$$$ (last 3' nucleoside missing)” was 3.75 score 0-7; that for “RNA1{[moe](T)[sp].[moe](G)p.[moe](T)p.[moe](A)p.[moe](G)[sp].d(A)[sp].d(A)[sp].d(G)[sp].d([m5C])[sp].d(A)[sp].d(T)[sp].d(T)[sp].d(G)[sp].d(T)[sp].d(A)[sp].[moe]([m5C])p.[moe]([m5C])p.[moe](T)[sp].[moe]([m5C])}$$$$ (last 3' nucleoside missing)” was 4.5 score 0-7. The value for “RNA1{[moe](T)[sp].[moe](G)p.[moe](T)p.[moe](G)p.[moe](A)[sp].d([m5C])[sp].d(A)[sp].d(A)[sp].d(T)[sp].d(A)[sp].d(T)[sp].d(T)[sp].d(T)[sp].d(A)[sp].d([m5C])[sp].[moe](T)p.[moe]([m5C])p.[moe](T)[sp].[moe](T)}$$$$ (last 3' nucleoside missing)” was 2.25 score 0-7; that for “RNA1{[moe](T)[sp].[moe](G)p.[moe](T)p.[moe](G)p.[moe](T)[sp].d([m5C])[sp].d(A)[sp].d(T)[sp].d(A)[sp].d(A)[sp].d(T)[sp].d(T)[sp].d(T)[sp].d(T)[sp].d([m5C])[sp].[moe](T)p.[moe](T)p.[moe](A)[sp].[moe](G)}$$$$ (last 3' nucleoside missing)” was 1 score 0-7; that for “RNA1{[moe](T)[sp].[moe](G)p.[moe](T)p.[moe](G)p.[moe]([m5C])[sp].d(T)[sp].d(T)[sp].d(A)[sp].d(T)[sp].d(T)[sp].d(A)[sp].d(T)[sp].d(T)[sp].d([m5C])[sp].d(A)[sp].[moe](T)p.[moe](G)p.[moe](T)[sp].[moe](T)}$$$$ (last 3' nucleoside missing)” was 0 score 0-7. The value for “RNA1{[moe](T)[sp].[moe](G)p.[moe](T)p.[moe](G)p.[moe]([m5C])[sp].d(T)[sp].d(T)[sp].d(T)[sp].d(T)[sp].d([m5C])[sp].d([m5C])[sp].d(T)[sp].d(T)[sp].d(T)[sp].d([m5C])[sp].[moe](A)p.[moe](G)p.[moe](A)[sp].[moe](T)}$$$$ (last 3' nucleoside missing)” was 0.75 score 0-7.

“RNA1{[moe](T)[sp].[moe](G)p.[moe](T)p.[moe](T)p.[moe](A)[sp].d(T)[sp].d(T)[sp].d(T)[sp].d([m5C])[sp].d([m5C])[sp].d(T)[sp].d([m5C])[sp].d(T)[sp].d(G)[sp].d(T)[sp].[moe](G)p.[moe]([m5C])p.[moe](T)[sp].[moe](T)}$$$$ (last 3' nucleoside missing)” showed a 3 h FOB score of 3.75 score 0-7. The value for “RNA1{[moe](T)[sp].[moe](G)p.[moe](T)p.[moe](T)p.[moe](T)[sp].d(G)[sp].d(T)[sp].d(T)[sp].d(T)[sp].d([m5C])[sp].d(T)[sp].d(T)[sp].d([m5C])[sp].d([m5C])[sp].d(A)[sp].[moe](T)p.[moe](T)p.[moe](G)[sp].[moe]([m5C])}$$$$ (last 3' nucleoside missing)” was 1 score 0-7. The value for “RNA1{[moe](T)[sp].[moe](G)p.[moe](T)p.[moe]([m5C])p.[moe](A)[sp].d(G)[sp].d(T)[sp].d(T)[sp].d(T)[sp].d(T)[sp].d(T)[sp].d([m5C])[sp].d([m5C])[sp].d([m5C])[sp].d([m5C])[sp].[moe](A)p.[moe]([m5C])p.[moe](A)[sp].[moe](T)}$$$$ (last 3' nucleoside missing)” was 0 score 0-7; that for “RNA1{[moe](T)[sp].[moe](G)p.[moe](T)p.[moe]([m5C])p.[moe](A)p.[moe](G)p.d(T)[sp].d(T)[sp].d(T)[sp].d(T)[sp].d(T)[sp].d([m5C])[sp].d([m5C])[sp].d([m5C])[sp].d([m5C])[sp].d(A)[sp].[moe]([m5C])p.[moe](A)[sp].[moe](T)}$$$$ (last 3' nucleoside missing)” was 0.5 score 0-7. “RNA1{[moe](T)[sp].[moe](G)p.[moe](T)p.[moe]([m5C])p.[moe](A)p.d(G)[sp].d(T)[sp].d(T)[sp].d(T)[sp].d(T)[sp].d(T)[sp].d([m5C])[sp].d([m5C])[sp].d([m5C])[sp].[moe]([m5C])[sp].[moe](A)p.[moe]([m5C])p.[moe](A)}$$$$ (last 3' nucleoside missing)” returned a 3 h FOB score of 0 score 0-7.

Substance “RNA1{[moe](T)[sp].[moe](G)p.[moe](T)p.[moe]([m5C])p.[moe](A)p.d(T)[sp].d(A)[sp].d(A)[sp].d(T)[sp].d(T)[sp].d(T)[sp].d(T)[sp].d([m5C])[sp].d(T)[sp].[moe](T)p.[moe](A)p.[moe](G)[sp].[moe]([m5C])}$$$$ (last 3' nucleoside missing)” registered a 3 h FOB score of 0 score 0-7. The substance “RNA1{[moe](T)[sp].[moe](G)p.[moe](T)p.[moe]([m5C])p.d(A)[sp].d(G)[sp].d(T)[sp].d(T)[sp].d(T)[sp].d(T)[sp].d(T)[sp].d([m5C])[sp].d([m5C])[sp].d([m5C])[sp].[moe]([m5C])p.[moe](A)p.[moe]([m5C])p.[moe](A)[sp].[moe](T)}$$$$ (last 3' nucleoside missing)” returned a 3 h FOB score of 0 score 0-7. The value for “RNA1{[moe](T)[sp].[moe](G)p.[moe]([m5C])p.[moe](A)p.[moe]([m5C])[sp].d(A)[sp].d([m5C])[sp].d(T)[sp].d(G)[sp].d(A)[sp].d([m5C])[sp].d([m5C])[sp].d(A)[sp].d(T)[sp].d(T)[sp].[moe](T)p.[moe](T)p.[moe](T)[sp].[moe](T)}$$$$ (last 3' nucleoside missing)” was 1 score 0-7; that for “RNA1{[moe](T)[sp].[moe](G)p.[moe]([m5C])p.[moe](T)p.[moe](T)[sp].d(A)[sp].d(T)[sp].d(T)[sp].d(A)[sp].d(T)[sp].d(T)[sp].d([m5C])[sp].d(A)[sp].d(T)[sp].d(G)[sp].[moe](T)p.[moe](T)p.[moe]([m5C])[sp].[moe](T)}$$$$ (last 3' nucleoside missing)” was 0 score 0-7; that for “RNA1{[moe](T)[sp].[moe](G)p.[moe]([m5C])p.[moe]([m5C])p.[moe](A)[sp].d([m5C])[sp].d(A)[sp].d(T)[sp].d(A)[sp].d(T)[sp].d(A)[sp].d(G)[sp].d(G)[sp].d(G)[sp].d(T)[sp].[moe]([m5C])p.[moe]([m5C])p.[moe](T)[sp].[moe](T)}$$$$ (last 3' nucleoside missing)” was 3 score 0-7. Substance “RNA1{[moe](T)[sp].[moe](T)p.[moe](A)p.[moe]([m5C])p.[moe](T)[sp].d([m5C])[sp].d(G)[sp].d(G)[sp].d([m5C])[sp].d(T)[sp].d(T)[sp].d(G)[sp].d(T)[sp].d(T)[sp].d([m5C])[sp].[moe]([m5C])p.[moe](A)p.[moe]([m5C])[sp].[moe](T)}$$$$ (last 3' nucleoside missing)” yielded a 3 h FOB score of 2.5 score 0-7. Take “RNA1{[moe](T)[sp].[moe](T)p.[moe](G)p.[moe](T)p.[moe](G)[sp].d(A)[sp].d([m5C])[sp].d(A)[sp].d(A)[sp].d(T)[sp].d(A)[sp].d(T)[sp].d(T)[sp].d(T)[sp].d(A)[sp].[moe]([m5C])p.[moe](T)p.[moe]([m5C])[sp].[moe](T)}$$$$ (last 3' nucleoside missing)”: the 3 h FOB score amounted to 0 score 0-7. The value for “RNA1{[moe](T)[sp].[moe](T)p.[moe](G)p.[moe]([m5C])p.[moe](A)[sp].d(G)[sp].d(G)[sp].d(T)[sp].d(A)[sp].d(A)[sp].d(G)[sp].d(T)[sp].d(T)[sp].d([m5C])[sp].d(T)[sp].[moe]([m5C])p.[moe](A)p.[moe](G)[sp].[moe](G)}$$$$ (last 3' nucleoside missing)” was 5.25 score 0-7; that for “RNA1{[moe](T)[sp].[moe](T)p.[moe](T)p.[moe](A)p.[moe]([m5C])[sp].d(T)[sp].d(T)[sp].d(T)[sp].d(T)[sp].d([m5C])[sp].d(A)[sp].d(G)[sp].d([m5C])[sp].d(T)[sp].d(G)[sp].[moe]([m5C])p.[moe]([m5C])p.[moe](T)[sp].[moe](T)}$$$$ (last 3' nucleoside missing)” was 6 score 0-7; that for “RNA1{[moe](T)[sp].[moe](T)p.[moe](T)p.[moe](G)p.[moe](A)[sp].d(T)[sp].d(T)[sp].d(T)[sp].d([m5C])[sp].d(A)[sp].d(A)[sp].d(G)[sp].d(T)[sp].d([m5C])[sp].d([m5C])[sp].[moe]([m5C])p.[moe](A)p.[moe](G)[sp].[moe](A)}$$$$ (last 3' nucleoside missing)” was 2.25 score 0-7. The value for “RNA1{[moe](T)[sp].[moe](T)p.[moe](T)p.[moe](G)p.[moe](G)[sp].d(A)[sp].d(G)[sp].d(G)[sp].d([m5C])[sp].d(T)[sp].d([m5C])[sp].d(T)[sp].d(T)[sp].d(T)[sp].d(T)[sp].[moe](A)p.[moe](G)p.[moe](G)[sp].[moe](T)}$$$$ (last 3' nucleoside missing)” was 4 score 0-7; that for “RNA1{[moe](T)[sp].[moe](T)p.[moe](T)p.[moe](G)p.[moe]([m5C])[sp].d(T)[sp].d(G)[sp].d(T)[sp].d(T)[sp].d(A)[sp].d(T)[sp].d(A)[sp].d([m5C])[sp].d(T)[sp].d(T)[sp].[moe](T)p.[moe](T)p.[moe](A)[sp].[moe]([m5C])}$$$$ (last 3' nucleoside missing)” was 1.25 score 0-7.
